In the supplement of paper PMC10307832:

What was measured:
Assay in all cases: relative viability (nuclei count vs DMSO), 5 days (fraction); higher = more cells survive
Salubrinal + Bortezomib = compound: O=C(/C=C/c1ccccc1)NC(NC(=S)Nc1cccc2cccnc12)C(Cl)(Cl)Cl [Salubrinal] + CC(C)C[C@H](NC(=O)[C@H](Cc1ccccc1)NC(=O)c1cnccn1)B(O)O [Bortezomib] (partner 0.002 µM)
Summary of the method: (§1)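 Lung cancer cell lines, seeded in 1536-well plates, were treated the following day by pin tool with a single drug or with five library-drug doses (not always all listed) in √10 steps on top of a fixed anchor-drug dose. Cells were fixed and nuclei stained in one step after 5 days, and nuclei were counted. Relative viability is the nuclei count for treated wells divided by that for vehicle wells, reported as medians of duplicate plates.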

[1] = compound: Cc1ccc2nc(NCCN)c3ncc(C)n3c2c1 + C[C@@H](Oc1cc(-c2cnn(C3CCNCC3)c2)cnc1N)c1c(Cl)ccc(F)c1Cl [Crizotinib] (partner 1 µM)
Summary of the method: as §1

[2] = compound: Cc1ccc2nc(NCCN)c3ncc(C)n3c2c1 + CC(C)C[C@H](NC(=O)[C@H](Cc1ccccc1)NC(=O)c1cnccn1)B(O)O [Bortezomib] (partner 0.002 µM)
Summary of the method: as §1

Salubrinal + AZD7762 = compound: O=C(/C=C/c1ccccc1)NC(NC(=S)Nc1cccc2cccnc12)C(Cl)(Cl)Cl [Salubrinal] + NC(=O)Nc1cc(-c2cccc(F)c2)sc1C(=O)N[C@H]1CCCNC1 [AZD7762] (partner 0.2 µM)
Summary of the method: as §1

Row | Cell Line | relative viability (Salubrinal + Bortezomib; first compound 0.08 µM) | relative viability (Salubrinal + Bortezomib; first compound 0.253 µM) | relative viability (Salubrinal + Bortezomib; first compound 0.8 µM) | relative viability (Salubrinal + Bortezomib; first compound 2.53 µM) | relative viability (Salubrinal + Bortezomib; first compound 8 µM) | relative viability ([1]; first compound 0.04 µM) | relative viability ([1]; first compound 0.1265 µM) | relative viability ([1]; first compound 0.4 µM) | relative viability ([1]; first compound 1.265 µM) | relative viability ([1]; first compound 4 µM) | relative viability ([2]; first compound 0.04 µM) | relative viability ([2]; first compound 0.1265 µM) | relative viability ([2]; first compound 0.4 µM) | relative viability ([2]; first compound 4 µM) | relative viability (Salubrinal + AZD7762; first compound 0.08 µM) | relative viability (Salubrinal + AZD7762; first compound 0.253 µM) | relative viability (Salubrinal + AZD7762; first compound 0.8 µM) | relative viability (Salubrinal + AZD7762; first compound 2.53 µM) | relative viability (Salubrinal + AZD7762; first compound 8 µM) | relative viability ([2]; first compound 1.265 µM)
1 | HCC-78 | 0.516 | 0.579 | 0.521 | 0.537 | 0.427 | 0.37 | 0.327 | 0.328 | 0.332 | 0.334 | 0.52 | 0.424 | 0.365 | 0.444 | 0.699 | 0.599 | 0.758 | 0.613 | 0.538 | –
2 | HCC-366 | 1.21 | 0.608 | 1.22 | 1.08 | 1.05 | 0.642 | 0.553 | 0.582 | 0.508 | 0.502 | 1.06 | 0.948 | 1.13 | 0.967 | 0.254 | – | 0.315 | 0.272 | 0.146 | 1.11
3 | HCC-827 | 0.98 | 0.955 | 1.23 | 1.05 | 1.07 | 0.792 | 0.903 | 0.932 | 0.866 | 0.927 | 1.12 | 1.05 | 0.958 | 1.01 | 0.193 | 0.191 | 0.199 | 0.181 | 0.222 | 1.09
4 | IA-LM | 1.01 | 0.874 | 0.895 | 0.68 | 0.758 | 1.05 | 0.945 | 0.631 | 0.787 | 0.631 | 0.895 | 0.94 | 0.844 | 0.66 | – | – | – | – | – | 0.696
5 | LK-2 | – | – | – | – | – | 0.228 | 0.258 | 0.214 | 0.222 | 0.238 | – | – | – | – | 0.39 | 0.486 | 0.489 | 0.441 | 0.358 | –
6 | NCI-H358 | – | – | – | – | – | 0.613 | 0.594 | 0.691 | 0.583 | 0.487 | – | – | – | – | 0.583 | 0.461 | 0.538 | 0.561 | 0.459 | –
7 | NCI-H520 | 0.881 | 0.439 | 0.793 | 0.633 | 0.435 | 0.725 | 0.699 | 0.761 | 0.791 | 0.639 | 0.656 | 0.544 | 0.464 | 0.36 | – | – | – | – | – | 0.568
8 | NCI-H522 | – | – | – | – | – | – | – | – | – | – | – | – | – | – | 0.99 | 0.808 | 0.957 | 0.808 | 0.908 | –
9 | NCI-H661 | 0.876 | 0.781 | 0.714 | 0.821 | 0.865 | 1.05 | 1.07 | 0.931 | 1.07 | 0.959 | 0.909 | 0.868 | 0.595 | 0.651 | – | – | – | – | – | –
10 | NCI-H1299 | 1.05 | 0.971 | 1.02 | 1.02 | 1.02 | 0.9 | 0.937 | 0.951 | 0.917 | 0.659 | 1 | 0.993 | 1.01 | 0.972 | – | – | – | – | – | 1.05
11 | NCI-H1395 | – | – | – | – | – | – | – | – | – | – | – | – | – | – | 0.376 | 0.443 | 0.389 | 0.432 | 0.385 | –
12 | NCI-H1563 | 0.791 | 0.937 | 0.859 | 0.844 | 0.776 | 0.865 | 0.835 | 0.906 | 0.918 | 0.88 | 0.859 | 0.757 | 0.875 | 1.05 | – | – | – | – | – | 0.968
